{"source": "patent US20210121438A1", "about": "“METHODS FOR TREATING OR PREVENTING CONFORMATION DISEASES AND METHODS FOR DRUG SCREENING” (GARAGE BRAIN SCIENCE CO., LTD, priority 2018, published 2021)", "assay_type_in_all_cases": "cell-based", "key": {"[1]": {"system": "GFP-TDP-43-IIPLD inclusion-expressing 293T cells", "assay": "TDP-43-IIPLD misfolded aggregates in transfected 293T cells (microscopy)", "procedure": "Cell Culture and Drug Treatment: 293T cells were used throughout the experimental studies. 293T cells were grown in Dulbecco's modified Eagle's medium (DMEM)/F12, which was supplemented with 10% fetal bovine serum, 1% penicillin/streptomycin and 1% L-glutamate. Primary cultures of rat hippocampal neurons were prepared from embryonic day 17 rat embryos as previously described by (Wang et al, TDP-43, the signature protein of FTLD-U, is a neuronal activity-responsive factor. J. Neurochem. 105, 79T-806 (2008)). All procedures for handling the rat were carried out in accordance with the guidelines approved by the Institutional Animal Care and Utilization Committee, Academia Sinica. Hippocampal cells were plated on poly-1-lysine-coated coverslides at low density (10,000 cells per cm2) and cultured in the neurobasal medium/B27 (Invitrogen). The 293T cells were transfected using the calcium phosphate protocol according to the manufacturer's instructions and as previously described by Wang et al. (Wang et al., ProcNatlAcadSci USA. 99, 13583-13588 (2002). All of the plasmid constructs were described in Wang et al., Nature Communication, 2012). 293T cells (1×10^5) were seeded in each well of a six-well plate and incubated overnight in a 37° C. incubator with 5% CO2. To determine the effects of off-pathway stabilizers on the reduction of pathological-like aggregates, the cells were treated with baicalein and EGCG for 12, 24, or 48 h with the indicated concentrations (25 or 50 μM).\nGFP-TDP-43 pathological-like (GFP-TDP-43-IIPLD) inclusion-expressing 293T cells were treated with or without 50 μM baicalein for 12 h following microscopic analysis and Western blotting validation. […] (FIG. 2c)."}, "[2]": {"system": "TDP-43-mediated CFTR exon 9 skipping", "assay": "Alternative splicing assay (in vivo splicing, CFTR minigene)", "conditions": "EGCG", "procedure": "Alternative Splicing Assay: TDP-43-mediated CFTR exon 9 skipping assays were performed as previously described. Briefly, cells were cotransfected with TDP-43 plasmid, hCF-(TG)13(T)5 minigenes and the indicated plasmids, including VCP/p97 wt, VCP/p97 QQ, HSPB1, lamin A or progeria, or HSPB1 siRNA. Total RNA of transfectanted cells was isolated by TRIzol reagent (Invitrogen), and RT-PCR was carried out by Superscript III (Invitrogen) using specific primers to amplify exons 8-10 of CFTR according to the manufacturer's protocol. The relative amounts of cDNA were validated on 1.3% agarose gels. […]"}, "[3]": {"biological_target": "T1, TDP-43 polymers (Homo sapiens, UniProt Q13148)", "T1 construct": "endogenous in cells; host or cells: 293T", "assay": "Western blotting of TDP-43 polymers in nuclear, cytosolic and urea fractions", "conditions": "EGCG-treated cells", "procedure": "Solubility Assay of TDP-43 and p53: Cells with or without transfection of TDP-43-FL or TDP-43-Q303P were lysed with RIPA buffer (50 mM Tris, 150 mM NaCl, 1 mM EDTA, 1% NP-40, pH 7.4), and the lysate was further fractionated by centrifugation at 16,000 g for 5 min at 4° C. The insoluble pellets were then dissolved in 8 M urea/50 mM Tris (pH 8.0). The proteins were identified by Western blotting using a polyclonal TDP-43 antibody or a monoclonal p53 antibody.\nTDP-43 proteinopathies in FTLD/ALS with the VCP/97 mutation R155H have been characterized. The VCP/97 mutation R155H alters the functions of VCP/97, redistributes TDP-43 to the cytosol, and leads to form-insoluble aggregates of TDP-43."}, "[4]": {"system": "p53 aggregates in 293T cells", "assay": "p53 aggregates in 293T cells / p53 strains (immunofluorescence with p53 antibody)", "procedure": "Immunohistochemistry: Fluorescence staining was performed as described previously (Wang et al., 2012). Cells were transfected with or without plasmids or siRNAs and grown for 24 to 48 hr. Cells were fixed with 3.7% paraformaldehyde in PBS at RT for 15 min and then permeabilized with 0.1% Triton X-100. The fixed cells were incubated with primary antibodies at RT for 2 hr followed by incubation with Cy2- or Cy3-labeled secondary antibodies (Molecular Probes). Slides were mounted using Vectashield DAPI H-1200 (Vector). Cellular fluorescence images were collected using an LSM710 META laser-scanning confocal microscope (Zeiss).\nWe observed a striking degree of heterogeneity among p53 aggregates in the cytosol of 293T cells by immunofluorescence with a p53 antibody, including long fibers (5-10 μm), short fibers (1.6-3.2 μm) and punctate aggregates (0.5-1 μm in diameter) (FIG. 16a, arrows). The length of the p53 fibers and p53 aggregates were analyzed (FIG. 16b). […] To determine whether these heterogeneous p53 amyloid patterns are inherited or are random conversions, we subcultured and isolated single colonies from heterogeneous pools of cells. […] We obtained four phenotypes shown in FIG. 16a, including long and short fibers, puncta, and diffuse nuclear staining, and these phenotypes were stably propagated (FIG. 16e). We termed these p53 phenotypes of the isolated strains as follows: p53 [L] (Long fibers), p53 [S] (Short fibers), p53 [P] (Puncta) and p53-NVA (No Visible Aggregates).\nAdditionally, we treated 293T cells with an Aβ amyloid disassembling agent, baicalein, following immunofluorescence staining with anti-p53 antibodies."}, "[5]": {"system": "four p53 strains", "assay": "Cell viability of the four p53 strains under stress (MTT assay)", "from_the_text": "Our clonally expanded system provided an excellent cellular model to precisely investigate the oncogenicity of strain-specific p53 amyloid conformations in vivo. We analyzed cell growth of the four p53 amyloid strains by examining cell cycle flow and counting doubling time (FIGS. 17a and 17b). […] In contrast to the toxic amyloids observed in neurodegenerative contexts, p53 amyloids appear to promote cell growth. Additionally, to assess the stress response, the four cell strains were challenged with spermidine and H2O2 (FIGS. 17c and 17d). Cell viability was impaired under all stress conditions. […] To further identify key pathophysiology pathways involved in tumorigenesis of p53 aggregates' gain-of-function, we performed a serial screen by western blotting and compared the expression of cancer-related proteins in the four strains. […] Additionally, a group of epigenetic regulators altered their expression in present of p53 aggregates. […] Together with the horizontal transmissibility shown in FIG. 16, the three endogenous p53 aggregates were able to switch into malignant cancer cells including activating EMT, increasing cancer stemness, and dramatically altering epigenetic regulators, and the strain-specific p53 amyloids can propagate oncogenic inheritance via a protein-based mechanism."}}, "note": "Where a SMILES comes first, the peptide text is derived from it. The star is where a group is joined. Cbz = O=C(OCc1ccccc1)*"}
{"smiles": "O=C(O[C@@H]1Cc2c(O)cc(O)cc2O[C@@H]1c1cc(O)c(O)c(O)c1)c1cc(O)c(O)c(O)c1", "note": "[EGCG]", "values": [{"measurement": "TDP-43-IIPLD aggregates, statistical analysis of dose dependence", "setting": "[1]", "value": "disassembled the formed TDP-43 misfolded aggregates in a dose-dependent manner"}, {"measurement": "assembly of TDP-43-IIPLD proteinaceous nucleating particles", "setting": "[1]; 50 μM", "value": "reduce TDP-43 proteinaceous nucleating particles"}, {"measurement": "correction of TDP-43 dysfunction on mRNA processing", "setting": "[2]", "value": "insufficient to correct TDP-43 dysfunction on mRNA processing"}, {"measurement": "TDP-43 species", "setting": "[3]", "value": "increased the level of the 130 kD TDP-43 instead of the high-order TDP-43 polymers"}]}
{"smiles": "OO", "note": "[H2O2]", "values": [{"measurement": "p53 aggregate formation", "setting": "[4]; H2O2 treatment", "value": "induced p53 aggregate formation"}, {"measurement": "cell viability", "setting": "[5]; four p53 strains challenged with H2O2", "value": "impaired"}]}
{"smiles": "NCCCCNCCCN", "note": "[spermidine]", "values": [{"measurement": "cell viability", "setting": "[5]; four p53 strains challenged with spermidine", "value": "impaired"}]}
{"smiles": "CC(C)C[C@@H](C=O)NC(=O)[C@H](CC(C)C)NC(=O)[C@H](CC(C)C)NC(=O)OCc1ccccc1", "note": "[MG132] (Cbz-Leu-Leu-Leu-aldehyde)", "values": [{"measurement": "form of p53 fibers", "setting": "[4]; 293T cells, MG132", "value": "converted the three types of p53 fibers into irregular inclusions"}, {"measurement": "p53 aggregates", "setting": "[4]; 293T cells, MG132", "value": "significantly increased p53 aggregates"}]}
